PubChem BioAssay (NCI)
Where “and” joins values, the source holds several entries; their conditions need not be identical. Identical values can stand only once.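 Values below derive from 48-hour exposures of cells grown in 96-well plates, with endpoints linearly interpolated between the two concentrations bracketing the appropriate inhibition level. GI50: concentration for 50% inhibition of growth. TGI is the concentration that stops growth completely.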

Legend:
Experiment in all cases: growth of human tumour cells (NCI), 48 h
RXF 393 renal = tested on: RXF 393 renal
786-0 renal = tested on: 786-0 renal
MALME-3M melanoma = tested on: MALME-3M melanoma
LOX IMVI melanoma = tested on: LOX IMVI melanoma
UACC-62 melanoma = tested on: UACC-62 melanoma
SN12C renal = tested on: SN12C renal
SF-295 CNS = tested on: SF-295 CNS
COLO 205 colon = tested on: COLO 205 colon
HL-60(TB) leukemia = tested on: HL-60(TB) leukemia
MDA-MB-435 = tested on: MDA-MB-435

Structure (SMILES) | TGI (RXF 393 renal) | TGI (786-0 renal) [µM] | TGI (MALME-3M melanoma) | TGI (LOX IMVI melanoma) [µM] | TGI (UACC-62 melanoma) | TGI (SN12C renal) | TGI (SF-295 CNS) [µM] | TGI (COLO 205 colon) | TGI (HL-60(TB) leukemia) | TGI (MDA-MB-435) [µM] | GI50 (786-0 renal) [µM] | GI50 (MDA-MB-435) [µM] | GI50 (MALME-3M melanoma) [µM] | GI50 (LOX IMVI melanoma) [µM] | GI50 (UACC-62 melanoma) [µM] | GI50 (SN12C renal) [µM] | GI50 (SF-295 CNS) [µM] | GI50 (COLO 205 colon) [µM] | GI50 (HL-60(TB) leukemia) [µM] | GI50 (RXF 393 renal) [µM]
CC1CCCC2(O1)OC1CC(=O)OC1C1=C2C(=O)c2ccccc2C1=O (centres undefined) | 4.14 µM | 3.85 | 4.43 µM | 9.29 | 5.1 µM | 4.77 µM | 32 | 5.19 µM | 3.48 µM | – | – | – | – | – | – | – | – | – | – | –
Nc1nc(N)c2nn(-c3ccc(C(=O)O)cc3)nc2n1 | > 100 µM | > 100 | – | > 100 | > 100 µM | > 100 µM | > 100 | > 100 µM | > 100 µM | > 100 | – | – | – | – | – | – | – | – | – | –
O=[N+]([O-])c1ccc(-c2ccc(C3=Nn4c(nnc4-c4ccc(Cl)cc4)SC3)o2)cc1 | – | > 100 | > 91.6 µM | > 100 | > 100 µM | > 100 µM | > 82.1 | > 100 µM | > 100 µM | – | – | – | – | – | – | – | – | – | – | –
O=C1c2cccc3cc4ccccc4c(c23)C(=O)N1CCCNCCNCCCN1C(=O)c2cccc3cc4ccccc4c(c23)C1=O | 1.58 µM | 1.69 | 1.8 µM | – | – | 1.86 µM | 1.64 | – | 8.28 µM | 1.73 | – | – | – | – | – | – | – | – | – | –
COc1cccc2c1C(=N)c1c(O)c3c(c(O)c1C2=O)C[C@@](O)(C(C)=O)C[C@@H]3OC1CC(N)C(O)C(C)O1 (some centres undefined) | 2.95 µM and 3.8 µM and 0.872 µM | – | 1.83 µM and 5.14 µM and 2.21 µM | – | 1.61 µM and 1.9 µM and 2.61 µM | 1.28 µM and 1.92 µM and 2.23 µM | – | 2.29 µM and 4.36 µM and 2.42 µM | 0.287 µM and 0.192 µM | 4.47 | 0.0766 | 1.1 | – | – | – | – | – | – | – | –
CCCCCCn1c(=N)n(CC(O)COc2cccc(C)c2)c2ccccc21 (centres undefined) | – | 3.24 | 3.66 µM | 3.44 | 4.97 µM | 13.8 µM | 3.78 | 3.43 µM | 3.79 µM | 3.56 | 1.72 | 1.83 | 1.92 | 1.82 | 1.92 | 3.21 | 1.78 | 1.9 | 1.88 | –
S=C(N/N=C/c1ccccc1)NC1CC(c2ccccc2)Oc2ccccc21 (centres undefined) | – | > 100 | > 100 µM | > 100 | > 100 µM | > 100 µM | 87.7 | > 100 µM | – | – | – | – | – | – | – | – | – | – | – | –
COCC(O)CN1C(N)=NC(O)C1O (centres undefined) | > 100 µM | > 100 | > 100 µM | > 100 | – | > 100 µM | > 100 | > 100 µM | > 100 µM | – | – | – | – | – | – | – | – | – | – | –
CCOC(=O)c1ccccc1NC(c1ccccc1)c1ccc2cccnc2c1O (centres undefined) | 23.2 µM | > 100 | – | 11 | – | > 100 µM | > 100 | 24.1 µM | 6.63 µM | 61.6 | 3.39 | 5.41 | – | 2.45 | – | 3.83 | 3.24 | 3.33 | 1.97 | 3.11
N#Cc1c(-c2ccc(Cl)cc2)n([O-])c2ccccc2[n+]1=O | 33.2 µM | 25 | – | 20.3 | 33.6 µM | 37.2 µM | 30.3 | 54.4 µM | 11.4 µM | 27 | 12.5 | 13.7 | – | 5.72 | 17.2 | 15.5 | 16.4 | 23 | 3.1 | 11
